The text below walks through data of patent US11344634B2, “Activity based probe and uses thereof for imaging” (Yissum Research Development Company of the Hebrew …, priority 2016, dated 2022).

Series [1] has as its target T1, Recombinant human Cathepsin B (Homo sapiens, UniProt P07858).
T1 construct: made in house
Description: Recombinant cathepsin labeling, competition assay, iodinated probes. The class given is biochemical. The note with it: probe 2 hour, then GB123 30 minutes. The method, then:
(§1) Recombinant cathepsin labeling, competition assay: Recombinant human Cathepsin L (0.5 μg), Cathepsin B (0.5 μg) were incubated the indicated concentrations of targeted or control iodinated activity based probes (CT-ABP) in reaction buffer (50 mM acetate, 2 mM DTT and 5 mM MgCl2, pH 5.5) for 120 minutes at 37° C. After probe incubation, residual cathepsin activity was labeled with GB123 for 30 minutes. The reaction was stopped by addition of sample buffer ×4 (40% glycerol, 0.2 M Tris/HCl, pH 6.8, 20% beta-mercaptoethanol, 12% SDS and 0.4 mg/ml bromophenol blue). Samples were then boiled, separated on a 12.5% SDS gel and scanned for fluorescence by a Typhoon scanner FLA 9500 at excitation/emission wavelengths of 645/670 nm.
(§2) The biochemical evaluation of the new probes started with evaluation for their ability to bind recombinant human cathepsins B or Cathepsin L. Recombinant human cathepsins B was incubated with increasing concentrations of the probes for 2 hour. Residual activity was detected by a fluorescently labeled cathepsin ABP GB 123 that was added to samples for 30 minutes at r.t. […] Next, residual cathepsins activity was labeled by GB123 1 μM during 2 hours. Cell lysates were separated on SDS-PAGE followed by scanning the gel for fluorescence to visualize labeling of residual cathepsins activity by GB123 (FIGS. 11C and 11F).
(§3) Recombinant human cathepsins B was incubated with increasing concentrations of the probes for 2 hour. Residual activity was detected by a fluorescently labeled cathepsin ABP that was added to samples for 30 minutes at r.t. The free probe was separated from the enzyme-probe complex by SDS PAGE, the detection of the probe-enzyme complex was done by a fluorescent scanning of the gel at Cy5 fluorescence, FIG. 12. […] To assure that the binding is dependent on protease activity, a control were performed HG87, HG94 and HG97 lacking the reactive moiety. […] Evaluation of I-CT-ABPs in intact cells. […] Next, residual cathepsins activity was labeled by GB123 1 μM during 2 hours. Cell lysates were separated on SDS-PAGE followed by scanning the gel for fluorescence at: 645/670 nm to visualize labeling of residual cathepsins activity by GB123 (FIG. 12E). […] Recombinant human cathepsins B was incubated with increasing concentrations of the Cy5 labelled probes for 2 hour. The free probe was separated from the enzyme-probe complex by SDS PAGE, the detection of the probe-enzyme complex was done by a fluorescent scanning of the gel at Cy5 fluorescence. […] The binding of the all the Cy5 labelled probes occur in an activity-dependent manner. Direct labeling in intact cells. The assay was carried out by incubation of NIH-3T3 cells with Cy5 labelled iodine tagged probes for 24 hours. Cell lysates were separated on SDS-PAGE followed by scanning the gel for fluorescence at: 645/670 nm to visualize labeling of residual cathepsins activity by GB123. […] For the PEGylated I-CT-ABP HG93 and HG32 also observed that recombinant cathepsin activity and cell permeability, it's difficult to quantify the selective inhibition due to enhanced permeation and retention (EPR) effect.

For series [2], the target named is T2, Recombinant human Cathepsin L (Homo sapiens, UniProt P07711).
T2 construct: made in house
The series is described as above. To be noted: probe 2 hour, then GB123 30 minutes. The class given is biochemical. Here is the method:
as §1, §2, §3

Another series has as its system NIH-3T3 cells. As to the kind of experiment: In vitro cytotoxicity, methylene blue assay, I-CT-ABPs. It is filed as cell-based, mouse. To be noted: NIH-3T3, 10 μM, 48 hours. Here is the method:
In vitro Cytotoxicity Assays. Methylene Blue assays were performed in 96-well plates; NIH-3T3 cells (5×10^3 cells/well) were seeded in a 96-well plate one day before treatment. Cells were treated with indicated concentrations of targeted IABNs and non-targeted nanomaterials that were pre-dissolved in 0.1% DMSO in the culture medium. Cells were incubated for 24 h and 48 h and cells were fixed with 2.5% glutaraldehyde incubation for 10 min. Cells were washed with water and borate buffer (0.1M, pH=8.5), Cell number was determined by staining cells with the addition of 100 μl per well of 1% Methylene Blue in borate buffer, followed by incubation at room temperature for at least 1 hour. The stain was aspirated and the plates rinsed by immersion in water, followed by immersion in deionized water. The plates were air-dried and then the stain was released from cells by the addition of 200 μl/well 0.1 N HCl solutions. After 1 hour incubation at 37° C., the absorbance of each […] at 620 nm was determined on a Cytation 3 microplate reader.
Cytotoxicity study of the I-CT-ABPs, the toxic response to the systematically varied physico-chemical properties of successive PAMAM dendrimers. In vitro cytotoxicity of I-CT-ABPs to NIH-3T3 cell lines was investigated. Viability assay was performed for assessment of the cytotoxicity of each I-CT-ABP to the NIH-3T3 cell lines using the methylene blue method.

T2 sequence (P07711 114-333): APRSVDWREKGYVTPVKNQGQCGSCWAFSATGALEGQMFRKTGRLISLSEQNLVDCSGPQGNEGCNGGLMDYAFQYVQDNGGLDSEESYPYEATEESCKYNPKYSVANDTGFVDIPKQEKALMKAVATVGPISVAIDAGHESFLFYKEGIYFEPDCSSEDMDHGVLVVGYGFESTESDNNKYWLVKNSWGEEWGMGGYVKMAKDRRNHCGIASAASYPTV

On to (IPA)16(NH2)16-G3 [HG87], for which the “binding to recombinant cathepsin B, competitive assay” value (“binding to recombinant cathepsin B” below) in series [1] is recorded as “no inhibition was detected”. In addition, the “binding to recombinant cathepsin L, competitive assay” value (“binding to recombinant cathepsin L” below) in series [2] was “no inhibition was detected”. Further, in the series with NIH-3T3 cells, the “toxicity (viability assay)” value was “slight toxicity”.

Turning to (IPA)16(PEG-750)16-G3 [HG97], in series [1], the “binding to recombinant cathepsin B” value is “no inhibition was detected”. Besides, the “binding to recombinant cathepsin L” value in series [2] is “no inhibition was detected”.

In the case of (IPA)16(PEG-4)16-G3 [HG94], in series [1], the “binding to recombinant cathepsin B” value is on record as “no inhibition was detected”. Further, in series [2], the “binding to recombinant cathepsin L” value is listed as “no inhibition was detected”.
